Reference: US20240261444A1, “RIGIDIFIED MACROCYCLES, COMPLEXES WITH RADIONUCLIDES, AND USE IN TARGETED RADIOTHERAPY OF CANCER” (Cornell University, priority 2021, published 2024)
Like-named read-outs stand apart in the source and are kept apart here.

Legend:
[1] = Thermodynamic stability constants of lanthanum complexes by potentiometric titration; details: for pLa (−log [M]free): [M]tot = 10^−6 M, [L]tot = 10^−5 M; for pLa (−log [M]free) / log KLa′ (conditional stability constant): pH 7.4, 25° C., I = 0.1M KCl; for ranking of log KLaL of lanthanum-ligand complexes: equimolar La^3+; for ranking of log KLaL of lanthanum-ligand complexes / stability of complexes with La^3+ (in words): potentiometric titration
Protocol: Thermodynamic stability studies.
(§1) Potentiometric Titrations. Stability constant measurements were carried out by titrating an aqueous solution (˜15 mL) of ligand (˜1 mM), metal (˜1 mM), and HCl (˜10 mM) with standardized KOH (0.1 M). The ionic strength of the solution was maintained at 0.1 M using KCl. The titration method employed a 0.1 mV/min drift limit with a minimum and maximum wait time of 0 s and 300 s respectively between addition of KOH aliquots (0.015 mL volume increments). No metal hydroxide precipitation was observed within the pH range and concentration employed. […] The stability constants were calculated from the average of three independent titrations (using three independently prepared ligand stock solutions from three independent synthetic preparations of ligands).

[2] = Thermodynamic stability constants of barium complexes by potentiometric titration; details: for pBa (−log [M]free): [M]tot = 10^−6 M, [L]tot = 10^−5 M; for pBa (−log [M]free) / log KBa′ (conditional stability constant): pH 7.4, 25° C., I = 0.1M KCl
Protocol: Thermodynamic stability studies.
as §1

[3] = Protonation constants by potentiometric titration; type: physicochemical; details: I=0.1 M KCl, 25° C.
Protocol: Potentiometric Titrations. Stability constant measurements were carried out by titrating an aqueous solution (˜15 mL) of ligand (˜1 mM), metal (˜1 mM), and HCl (˜10 mM) with standardized KOH (0.1 M). The ionic strength of the solution was maintained at 0.1 M using KCl. The titration method employed a 0.1 mV/min drift limit with a minimum and maximum wait time of 0 s and 300 s respectively between addition of KOH aliquots (0.015 mL volume increments). […] The titration data within the pH range of 2.2-11.3 were analyzed using Hyperquad2013 software. The stability constants were calculated from the average of three independent titrations (using three independently prepared ligand stock solutions from three independent synthetic preparations of ligands).

[4] = pH 7.4
Protocol: Thermodynamic stability studies.
as §1

[5] = pH 7.4; remark: listed apart in the source
Protocol: Thermodynamic stability studies.
as §1

[6] = type: physicochemical
Protocol: H2BZmacropa-NCS Hydrolysis. The stability of BZmacropa-NCS^2— towards hydrolysis was tested as the followings. A solution (1 mL) of H2BZmacropa-NCS (≈1.5 mM) was prepared in 0.1 M Na2CO3/NaHCO3pH 9.1 buffer and stored at room temperature (≈23±1° C.) in a vial covered with aluminum foil. This solution was analyzed periodically by analytical HPLC (method quick-MeCN, 5 μL aliquots) for over a week.

[7] = target: T1, human GPC3 protein (Homo sapiens, UniProt P51654); assay: Binding affinity by bio-layer interferometry (BLI); details: immobilized biotinylated human GPC3, antibody 0-25 nM, global fit
T1 construct: biotin (biotinylated); purchased Acro Biosystems, Newark, DE
Protocol: Biotinylated human GPC3 protein (Acro Biosystems, Newark, DE) was diluted to 1 μg/mL in assay buffer: 1×PBS with 0.02% Tween-20 and 0.1% acetylated BSA (Electron Microscopy Sciences, Hatfield, PA) in a 96-well plate and loaded onto streptavidin biosensors (ForteBio, Menlo Park, CA). Antibodies were diluted in assay buffer at 4 concentrations from 0-25 nM and loaded into a 96-well plate (final volume of 200 μL). GPC3 was loaded to a density of 0.3 to avoid avidity affects. Reference wells containing buffer only, GPC3-only and antibody only were used as blanks. Plates were run on an Octet Red96 system (FortéBio, Menlo Park, CA) and analyzed with ForteBio Octet Data Analysis software (v.11). […] The combined association and dissociation kinetic data across all concentrations were fit using the global fitting model in the Octet Analysis Studio software.

[8] = type: in vivo, mice
Protocol: Biodistribution. […] At 48 and 96 h post-injection, mice (n=3-4 per time point) were euthanized. Their organs were harvested and weighed, then counted on a gamma counter after allowing 24 h for ^225Ac daughters to equilibrate. The activity in each organ was decay-corrected using a standard of known activity prepared at the same time as the injections. Radiotracer uptake in each organ was calculated by dividing the % injected activity (% IA) in each organ by the organ's weight. Measurement errors are reported as the standard deviation of the % IA/g values (FIGS. 2A-2B).

| Compound | log KLaL ([1]; I=0.1 M KCl, 25° C.) | pLa (−log [M]free) [1] | log KLa′ (conditional stability constant) [1] | log KBaL ([2]; I=0.1 M KCl, 25° C.) | pBa (−log [M]free) [2] | log K1 (protonation constant) [3] | log K2 (protonation constant) [3] | log K3 (protonation constant) [3] | log K4 (protonation constant) [3] | log KBaHL ([2]; I=0.1 M KCl, 25° C.) | ranking of log KLaL of lanthanum-ligand complexes [1] | log KBa′ (conditional stability constant) [2] | other results |
| --- | --- | --- | --- | --- | --- | --- | --- | --- | --- | --- | --- | --- | --- |
| O=C(O)CN(CCN(CC(=O)O)CC(=O)O)CC(=O)O [EDTA] | 15.46 | 13.60 | 12.65 | 7.80 | 6.28 | 10.19 | 6.13 | 2.69 | 2.00 |  |  | 4.99 |  |
| O=C(O)c1cccc(CN2CCOc3ccccc3OCCN(Cc3cccc(C(=O)O)n3)CCOc3ccccc3OCC2)n1 [H2BZ2macropa, 6,6′-((6,7,9,10,17,18,20,21-octahydro-8H,19H-dibenzo[b,k][1,4,10,13]tetraoxa[7,16]diazacyclooctadecine-8,19-diyl)bis(methylene))dipicolinic acid] |  |  |  |  |  |  |  |  |  |  | H2macropa>H2BZmacropa>H2BZ2macropa |  | stability of complexes with La^3+ (in words) [1]: form highly stable complexes with La^3+ |
| O=C(O)c1cccc(CN2CCOCCOCCN(Cc3cccc(C(=O)O)n3)CCOc3ccccc3OCC2)n1 [H2BZmacropa, 6,6′-((2,3,5,6,8,9,11,12,14,15-decahydro-4H,13H-benzo[b][1,4,10,13]tetraoxa[7,16]diazacyclooctadecine-4,13-diyl)bis(methylene))dipicolinic acid] | 13.98 |  |  | 9.09 | 9.87 | 7.06 | 6.41 | 3.33 | 2.49 | 3.56 | H2macropa>H2BZmacropa>H2BZ2macropa | 8.91 | stability of complexes with La^3+ (in words) [1]: form highly stable complexes with La^3+ |
| O=C(O)c1cccc(CN2CCOCCOCCN(Cc3cc(N=C=S)cc(C(=O)O)n3)CCOCCOCC2)n1 [H2macropa-NCS] |  |  |  |  |  |  |  |  |  |  |  |  | time for complete hydrolysis ([6]; 0.1 M Na2CO3/NaHCO3 pH 9.1 buffer, room temperature): more than a week's time; half-life of hydrolysis of the thiocyanate functional group ([6]; buffer, pH 9.1): 56 h |
| GC33-BZM: "GC33-BZmacropa conjugate" |  |  |  |  |  |  |  |  |  |  |  |  | Kd [7]: 0.19 nM |
| ^225Ac[Ac]-GC33-BZM: "The radioconjugate ^225Ac[Ac]-GC33-BZM" |  |  |  |  |  |  |  |  |  |  |  |  | tumor targeting compared with ^225Ac[Ac]-GC33-M ([8]; mice, intravenous 100 nCi, 48 and 96 h): no significant difference; tumor uptake ([8]; mice, intravenous 100 nCi, 48 and 96 h post-injection): clear, specific tumor uptake at both 48 and 96 h post-injection, with tumor signal greater than that of all organs at both time points; off-target accumulation in liver and femur compared with ^225Ac[Ac]-GC33-M ([8]; mouse, in vivo): higher than that of ^225Ac[Ac]-GC33-M in both the liver and femur at 48 h |

Continued, in another order:

| log KLaL ([1]; I=0.1 M KCl, 25° C.) | pLa (−log [M]free) [1] | log KLa′ (conditional stability constant) [1] | log KBaL ([2]; I=0.1 M KCl, 25° C.) | pBa (−log [M]free) [2] | log K1 (protonation constant) [3] | log K2 (protonation constant) [3] | log K3 (protonation constant) [3] | log K4 (protonation constant) [3] | log KBaHL ([2]; I=0.1 M KCl, 25° C.) | ranking of log KLaL of lanthanum-ligand complexes [1] | Compound | log KBa′ (conditional stability constant) [2] | other results |
| --- | --- | --- | --- | --- | --- | --- | --- | --- | --- | --- | --- | --- | --- |
| 21.7 | 16.62 | 15.67 | 11.75 | 6.76 | 11.14 | 9.69 | 4.85 | 3.95 |  |  | O=C(O)CN1CCN(CC(=O)O)CCN(CC(=O)O)CCN(CC(=O)O)CC1 [DOTA] | 5.72 |  |
| 19.48 | 16.28 |  | 8.78 | 6.15 | 10.34 | 8.59 | 4.25 | 2.71 | 5.34 |  | O=C(O)CN(CCN(CC(=O)O)CC(=O)O)CCN(CC(=O)O)CC(=O)O [DTPA] |  | log KLa′ (conditional stability constant) [4]: 15.32; log KBa′ (conditional stability constant) [5]: 4.63; log K5 (protonation constant) [3]: 2.18 |
| 14.99 | 15.58 | 14.63 | 11.11 | 11.69 | 7.41 | 6.90 | 3.23 | 2.45 | 3.76 | H2macropa>H2BZmacropa>H2BZ2macropa | O=C(O)c1cccc(CN2CCOCCOCCN(Cc3cccc(C(=O)O)n3)CCOCCOCC2)n1 [H2macropa] | 10.74 | log KLaHL ([1]; I=0.1 M KCl, 25° C.): 2.28; log KBaH2L ([2]; I=0.1 M KCl, 25° C.): 2.49 |
